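All cell lines were grown in 96-well plates and treated with compound for 48 hours. GI50 marks 50% less growth. TGI: concentration producing complete growth inhibition.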
Columns and labels:
Experiment in all cases: NCI anticancer screen, dose series, 48 h
786-0 renal = tested on: 786-0 renal
A498 renal = tested on: A498 renal
BT-549 breast = tested on: BT-549 breast
HCT-116 colon = tested on: HCT-116 colon
MDA-MB-435 = tested on: MDA-MB-435
NCI-H23 lung = tested on: NCI-H23 lung
OVCAR-5 ovarian = tested on: OVCAR-5 ovarian
SK-MEL-2 melanoma = tested on: SK-MEL-2 melanoma
SK-MEL-5 melanoma = tested on: SK-MEL-5 melanoma
SNB-19 CNS = tested on: SNB-19 CNS

| SMILES | GI50 (786-0 renal) [µM] | TGI (786-0 renal) [µM] | GI50 (A498 renal) [µM] | TGI (A498 renal) [µM] | GI50 (BT-549 breast) [µM] | TGI (BT-549 breast) [µM] | GI50 (HCT-116 colon) [µM] | TGI (HCT-116 colon) [µM] | GI50 (MDA-MB-435) [µM] | TGI (MDA-MB-435) [µM] | GI50 (NCI-H23 lung) [µM] | TGI (NCI-H23 lung) [µM] | GI50 (OVCAR-5 ovarian) [µM] | TGI (OVCAR-5 ovarian) [µM] | GI50 (SK-MEL-2 melanoma) [µM] | TGI (SK-MEL-2 melanoma) [µM] | GI50 (SK-MEL-5 melanoma) [µM] | TGI (SK-MEL-5 melanoma) [µM] | GI50 (SNB-19 CNS) [µM] | TGI (SNB-19 CNS) [µM] |
| --- | --- | --- | --- | --- | --- | --- | --- | --- | --- | --- | --- | --- | --- | --- | --- | --- | --- | --- | --- | --- |
| Cc1cc2c(cc1Cl)SC1=NN(C)C(c3ccccc3O)N1S2(=O)=O (configuration not stated) | > 100 | > 100 | > 100 | > 100 | 95.2 | > 100 | 44.1 | > 100 | > 100 | > 100 | > 100 | > 100 | 60 | > 100 | > 100 | > 100 | 57 | > 100 | 86.7 | > 100 |
| COc1ccc(N=C2NN=C(c3c[nH]c4ccccc34)CS2)cc1OC | 12 | > 91.5 | 4.43 | > 61.3 | 4.2 | > 42.5 | 8.25 | > 100 | 1.3 | 4 | 13.5 | > 93.2 | > 70.6 | > 100 | > 100 | > 100 | 3.6 | 23.4 | 10.9 | > 100 |
| Cn1cc(-c2nn3cc(-c4cccs4)nc3s2)c2cc(F)ccc21 | 7.62 | 52.3 | 4.09 | 50 | 5.54 | 77.4 | 2.04 | 26.4 | 0.293 | 1.13 | 3.82 | > 100 | 8.24 | 84.4 | 1.59 | 7.29 | 1.8 | 12.9 | 3.44 | > 100 |
| COc1cc(C(=O)/C=C/c2c(C(F)(F)F)nc3sccn23)cc(OC)c1OC | 1.76 | 3.16 | 1.89 | 3.42 | 2.26 | 6.87 | 1.01 | 2.19 | 1.61 | 4.35 | 1.72 | 3.89 | – | – | 2.26 | 5.09 | 1.59 | 2.96 | 2.67 | 10.2 |
| O=c1[nH]c(-c2ccccn2)nc2sc3c(c12)CCCCCC3 | 5.65 | > 100 | 1.31 | > 100 | 5.62 | > 100 | 1.37 | > 100 | > 100 | > 100 | 11 | > 100 | 90.9 | > 100 | > 100 | > 100 | 2.92 | > 100 | – | – |
| COc1cc(C2c3cc4c(cc3[C@@H](Nc3cccc(O)c3)C3COC(=O)[C@H]23)OCO4)cc(OC)c1O (some centres not stated) | 0.98 | 5.36 | 0.86 | 5.9 | – | 6.7 | 0.804 | 23.3 | – | 18.8 | 0.445 | 5.52 | – | 22.7 | – | 15 | 0.526 | 6.45 | 0.949 | 24.9 |
| C=CC[PH+](c1ccccc1)c1ccccc1.C=CC[PH+](c1ccccc1)c1ccccc1.[Cl][Pt][Cl] | 12.6 | 25.5 | 16.5 | 57.8 | 17.1 | 35.4 | 3.2 | 10.6 | 14.8 | 28.9 | 9.14 | 23.9 | 13.9 | 30.4 | 18.3 | 40.4 | 15.8 | 30.6 | 14.2 | 32.4 |
| N#Cc1ccc(N2Cc3cc(Cl)ccc3OC3=C2C(=O)N(Cc2ccccc2)C3=O)cc1 | 1.92 | 3.44 | 1.83 | 3.96 | 1.6 | 3.3 | 0.284 | 1.25 | 1.34 | 3.27 | 2.14 | 5.34 | 1.96 | 4.08 | 2.08 | 4.51 | 1.84 | 3.51 | 3.32 | 11.7 |
| Cn1c(COC(=O)NCCN2CCOCC2)nc2c(N3CCOCC3)nc(-c3ccccc3)nc21 | 0.843 | 2.23 | 1.44 | 2.83 | 1.08 | 2.71 | 0.397 | 1.7 | 1.07 | 2.47 | 1.84 | 4.1 | 1.6 | 3.66 | 1.65 | 3.2 | 1.64 | 3.05 | 1.57 | 3.31 |
| O=[N+]([O-])c1cccc(-c2ncc(-c3ccc(Cl)cc3Cl)[nH]2)c1 | 5.16 | 11 | 6.12 | 22.6 | 3.05 | 8.07 | 2.21 | 5.95 | 3.62 | 12.2 | 10.6 | 43.7 | 8.07 | 23.1 | 16.2 | 41.3 | 4.59 | 9.23 | 7.85 | 23.2 |
| CCCCCCN1C(=O)CN=C1Nc1ccc2cc3ccc(NC4=NCC(=O)N4CCCCCC)cc3nc2c1 | 1.56 | 2.95 | 15.9 | 32.6 | 3.46 | 17.6 | 1.19 | 2.48 | 1.79 | 3.77 | 1.96 | 5.23 | 1.81 | 4.12 | 2.79 | 8.45 | 3.9 | 15.8 | 2.07 | 4.67 |
| CCCCCCCCCCCCCCCCCC1=NC(C)(C)CN1CCO | 1.73 | 3.2 | 13.5 | 32.1 | 19.8 | 48 | 1.63 | 3.19 | 1.73 | 3.42 | 1.71 | 3.33 | 1.78 | 3.6 | 1.97 | 3.63 | 2.16 | 4.95 | 1.66 | 3.28 |

Source: PubChem BioAssay (NCI)
